How the values were obtained:
SYK kinase = target: T1, SYK kinase (Homo sapiens, UniProt P43405); assay: SYK Assay (OMNIA Kinase Assay, SOX peptide fluorescence); type: biochemical; settings: 1 mM ATP, 10 μM Omnia Peptide Substrate Tyr 7, 30° C., readings for 30 minutes; read-out: SYK Activities: IC50
T1 construct: purchased Invitrogen, Carlsbad
Procedure, shortened: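 The reaction was run at 30 °C with 1 mM ATP, 0.2 mM DTT and 10 μM Omnia Tyr 7 peptide (final) and started by adding SYK. Chelation-enhanced SOX fluorescence (ex 360/em 485 nm) was read every 30 s for 30 min. Reaction velocity versus inhibitor concentration was fitted sigmoidally for IC50.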

LRRK2 = LRRK2 (Homo sapiens, UniProt Q5S007); assay: LRRK2-LRRK2 G2019S-Assay (LanthaScreen Eu Kinase Binding Assay); settings: 5 nM LRRK2, 10 nM tracer 236, 2 nM EU-Anti-GST antibody, 1 h at RT; read-out: LRRK2 Activities: IC50
LRRK2, sequence (Q5S007 970-2527 limits assumed): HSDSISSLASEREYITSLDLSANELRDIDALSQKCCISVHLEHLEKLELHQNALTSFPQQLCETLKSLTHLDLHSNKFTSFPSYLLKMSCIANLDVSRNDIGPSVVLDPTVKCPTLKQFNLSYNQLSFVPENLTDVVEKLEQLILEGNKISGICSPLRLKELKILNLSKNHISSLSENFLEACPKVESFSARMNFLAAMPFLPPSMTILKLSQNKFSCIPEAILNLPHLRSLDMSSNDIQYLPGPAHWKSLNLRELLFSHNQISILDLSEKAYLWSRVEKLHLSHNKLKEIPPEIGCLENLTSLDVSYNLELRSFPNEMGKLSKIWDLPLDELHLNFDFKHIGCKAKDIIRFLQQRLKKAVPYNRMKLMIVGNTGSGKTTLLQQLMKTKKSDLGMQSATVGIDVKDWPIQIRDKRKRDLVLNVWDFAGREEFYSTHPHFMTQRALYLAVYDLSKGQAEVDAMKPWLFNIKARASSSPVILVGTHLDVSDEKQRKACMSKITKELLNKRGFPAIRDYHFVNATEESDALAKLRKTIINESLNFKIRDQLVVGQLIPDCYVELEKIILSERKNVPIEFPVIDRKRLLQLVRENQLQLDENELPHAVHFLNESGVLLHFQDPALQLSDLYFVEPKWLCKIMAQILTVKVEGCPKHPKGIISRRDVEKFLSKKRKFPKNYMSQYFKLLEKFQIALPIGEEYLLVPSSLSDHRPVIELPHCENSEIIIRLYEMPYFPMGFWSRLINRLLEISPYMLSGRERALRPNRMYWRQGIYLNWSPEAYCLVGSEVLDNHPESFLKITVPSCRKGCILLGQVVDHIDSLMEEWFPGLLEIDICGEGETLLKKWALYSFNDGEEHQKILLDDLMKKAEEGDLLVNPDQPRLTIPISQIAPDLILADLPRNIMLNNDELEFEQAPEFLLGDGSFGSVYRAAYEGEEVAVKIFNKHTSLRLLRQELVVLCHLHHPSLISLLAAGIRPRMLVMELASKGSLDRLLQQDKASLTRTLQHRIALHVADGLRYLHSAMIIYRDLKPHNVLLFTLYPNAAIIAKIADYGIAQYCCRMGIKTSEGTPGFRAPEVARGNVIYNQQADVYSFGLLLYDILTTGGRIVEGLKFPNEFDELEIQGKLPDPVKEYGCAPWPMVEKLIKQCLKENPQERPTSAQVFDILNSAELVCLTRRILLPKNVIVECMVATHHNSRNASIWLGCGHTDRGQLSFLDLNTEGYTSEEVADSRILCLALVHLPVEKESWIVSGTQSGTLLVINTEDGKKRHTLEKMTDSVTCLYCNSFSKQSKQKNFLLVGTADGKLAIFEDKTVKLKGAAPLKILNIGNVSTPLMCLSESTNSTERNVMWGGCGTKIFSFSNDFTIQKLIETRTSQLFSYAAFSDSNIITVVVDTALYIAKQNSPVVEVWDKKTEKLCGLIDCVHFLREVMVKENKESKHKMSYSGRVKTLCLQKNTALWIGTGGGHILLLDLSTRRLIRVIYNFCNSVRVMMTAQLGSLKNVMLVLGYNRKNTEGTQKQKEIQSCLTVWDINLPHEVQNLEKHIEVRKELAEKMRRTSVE
Procedure, shortened: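 Compound competition with Alexa Fluor 647 tracer 236 (10 nM) was measured after 1 h at room temperature, using 5 nM LRRK2 (wild type or mutant) bound to 2 nM Eu-anti-GST antibody. IC50 was derived from the acceptor/donor (665/615 nm) ratio using a variable-slope dose-response fit.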

Which IC50 (SYK kinase) does the source give for `CS(=O)(=O)c1ccc2c(c1)nc(Nc1ccc(N3CCN(CCO)CC3)cc1)c1[nH]ncc12` [Example 303, 2-(4-(4-((7-(methylsulfonyl)-3H-pyrazolo[3,4-c]quinolin-4-yl)amino)phenyl)piperazin-1-yl)ethan-1-ol] here?
The IC50 was 0.01 to 0.1 µM.

And the IC50 (LRRK2)?
The IC50 was 0.1 to 1 µM.

Which results are given for `COc1cccc2c1nc(Nc1cnn(C3CCOCC3)c1)c1[nH]ncc12` [Example 307, 6-methoxy-N-(1-(tetrahydro-2H-pyran-4-yl)-1H-pyrazol-4-yl)-3H-pyrazolo[3,4-c]quinolin-4-amine]?
IC50 (SYK kinase): 0.1 to 1 µM; IC50 (LRRK2): 0.1 to 1 µM

Which results are given for `CS(=O)(=O)c1ccc2nc(Nc3ccc(N4CCN(CCO)CC4)cc3)c3[nH]ncc3c2c1` [Example 309, 2-(4-(4-((8-(methylsulfonyl)-3H-pyrazolo[3,4-c]quinolin-4-yl)amino)phenyl)piperazin-1-yl)ethan-1-ol]?
IC50 (SYK kinase): 0.01 to 0.1 µM; IC50 (LRRK2): < 0.01 µM

With `COc1ccc2nc(Nc3cnn(CC(=O)N(C)C)c3)c3n[nH]cc3c2c1` [Example 311, 2-(4-((8-methoxy-2H-pyrazolo[3,4-c]quinolin-4-yl)amino)-1H-pyrazol-1-yl)-N,N-dimethylacetamide] as the compound, how does the IC50 (SYK kinase) read?
Its IC50 is 0.1 to 1 µM.

And the IC50 (LRRK2)?
Its IC50 is 0.01 to 0.1 µM.

With `COc1ccc2nc(Nc3cnn(C4CCNC4)c3)c3n[nH]cc3c2c1` (stereo not shown) [Example 312, 8-methoxy-N-(1-(pyrrolidin-3-yl)-1H-pyrazol-4-yl)-2H-pyrazolo[3,4-c]quinolin-4-amine] as the compound, how does the IC50 (SYK kinase) read?
Its IC50 is less than 0.01 µM.

And the IC50 (LRRK2)?
Its IC50 is 0.01 to 0.1 µM.

For `COCC(COC)n1cc(Nc2nc3ccc(OC)cc3c3c[nH]nc23)cn1` [Example 313, N-(1-(1,3-dimethoxypropan-2-yl)-1H-pyrazol-4-yl)-8-methoxy-2H-pyrazolo[3,4-c]quinolin-4-amine], which IC50 (SYK kinase) is on record?
Its IC50 is 0.1 to 1 µM.

And the IC50 (LRRK2)?
The IC50 was 0.01 to 0.1 µM.

Which IC50 (SYK kinase) does the source give for `COc1ccc2nc(Nc3cnn(C4CCCOC4)c3)c3n[nH]cc3c2c1` (stereo not shown) [Example 314, 8-methoxy-N-(1-(tetrahydro-2H-pyran-3-yl)-1H-pyrazol-4-yl)-2H-pyrazolo[3,4-c]quinolin-4-amine] here?
Its IC50 is 0.01 to 0.1 µM.

What about the IC50 (LRRK2) of the same compound?
The IC50 was 0.01 to 0.1 µM.

Which results are given for `COC(C)(C)Cn1cc(Nc2nc3ccc(S(C)(=O)=O)cc3c3cn[nH]c23)cn1` [Example 315, N-(1-(2-methoxy-2-methylpropyl)-1H-pyrazol-4-yl)-8-(methylsulfonyl)-3H-pyrazolo[3,4-c]quinolin-4-amine]?
IC50 (SYK kinase): 0.01 to 0.1 µM; IC50 (LRRK2): 0.01 to 0.1 µM

How did the IC50 (SYK kinase) turn out when `CS(=O)(=O)c1ccc2nc(Nc3ccc(N4CCC(O)CC4)cc3)c3[nH]ncc3c2c1` [Example 316, 1-(4-((8-(methylsulfonyl)-3H-pyrazolo[3,4-c]quinolin-4-yl)amino)phenyl)piperidin-4-ol] was run?
Its IC50 is 0.01 to 0.1 µM.

What about the IC50 (LRRK2) of the same compound?
Its IC50 is 0.01 to 0.1 µM.

`COc1ccc2nc(Nc3cnn(C(C)C(C)C)c3)c3n[nH]cc3c2c1` (stereo not shown) [Example 321, 8-methoxy-N-(1-(3-methylbutan-2-yl)-1H-pyrazol-4-yl)-2H-pyrazolo[3,4-c]quinolin-4-amine] was tested. Which IC50 (SYK kinase) did it give?
Its IC50 is 0.1 to 1 µM.

What about the IC50 (LRRK2) of the same compound?
The IC50 was 0.01 to 0.1 µM.

For `CS(=O)(=O)c1ccc2nc(Nc3cnn(C4CCCOC4)c3)c3n[nH]cc3c2c1` (stereo not shown) [Example 323, 8-(methylsulfonyl)-N-(1-(tetrahydro-2H-pyran-3-yl)-1H-pyrazol-4-yl)-2H-pyrazolo[3,4-c]quinolin-4-amine], which IC50 (SYK kinase) is on record?
The IC50 was 0.01 to 0.1 µM.

What about the IC50 (LRRK2) of the same compound?
Its IC50 is 0.01 to 0.1 µM.

What does the source list for `CC(C)C(C)n1cc(Nc2nc3ccc(S(C)(=O)=O)cc3c3c[nH]nc23)cn1` (stereo not shown) [Example 324, N-(1-(3-methylbutan-2-yl)-1H-pyrazol-4-yl)-8-(methylsulfonyl)-2H-pyrazolo[3,4-c]quinolin-4-amine]?
IC50 (SYK kinase): 0.01 to 0.1 µM; IC50 (LRRK2): < 0.01 µM

Which IC50 (SYK kinase) does the source give for `CS(=O)(=O)c1ccc2nc(Nc3cnn(C4CCNC4)c3)c3n[nH]cc3c2c1` (stereo not shown) [Example 327, 8-(methylsulfonyl)-N-(1-(pyrrolidin-3-yl)-1H-pyrazol-4-yl)-2H-pyrazolo[3,4-c]quinolin-4-amine] here?
The IC50 was less than 0.01 µM.

And the IC50 (LRRK2)?
Its IC50 is less than 0.01 µM.

With `CN1C(=O)COc2ccc(Nc3nc4ccc(S(C)(=O)=O)cc4c4c[nH]nc34)cc21` [Example 328, 4-methyl-6-((8-(methylsulfonyl)-2H-pyrazolo[3,4-c]quinolin-4-yl)amino)-2H-benzo[b][1,4]oxazin-3(4H)-one] as the compound, how does the IC50 (SYK kinase) read?
The IC50 was 0.1 to 1 µM.

And the IC50 (LRRK2)?
The IC50 was 0.01 to 0.1 µM.

For `CC(C)(O)Cn1cc(Nc2nc3cc(S(C)(=O)=O)ccc3c3cn[nH]c23)cn1` [Example 329, 2-methyl-1-(4-((7-(methylsulfonyl)-3H-pyrazolo[3,4-c]quinolin-4-yl)amino)-1H-pyrazol-1-yl)propan-2-ol], which IC50 (SYK kinase) is on record?
The IC50 was 0.01 to 0.1 µM.

And the IC50 (LRRK2)?
Its IC50 is 0.1 to 1 µM.

Which IC50 (SYK kinase) does the source give for `CC(=O)Nc1cccc(Nc2nc3ccc(S(C)(=O)=O)cc3c3c[nH]nc23)c1` [Example 331, N-(3-((8-(methylsulfonyl)-2H-pyrazolo[3,4-c]quinolin-4-yl)amino)phenyl)acetamide] here?
Its IC50 is 0.1 to 1 µM.

What about the IC50 (LRRK2) of the same compound?
The IC50 was 0.01 to 0.1 µM.

Which IC50 (SYK kinase) does the source give for `COc1ccc(Nc2nc3ccc(S(C)(=O)=O)cc3c3c[nH]nc23)cc1NC(C)=O` [Example 332, N-(2-methoxy-5-((8-(methylsulfonyl)-2H-pyrazolo[3,4-c]quinolin-4-yl)amino)phenyl)acetamide] here?
Its IC50 is 0.01 to 0.1 µM.

What about the IC50 (LRRK2) of the same compound?
The IC50 was 0.01 to 0.1 µM.

How did the IC50 (SYK kinase) turn out when `CCc1cccc(Nc2nc3ccc(S(C)(=O)=O)cc3c3c[nH]nc23)c1` [Example 333, N-(3-ethylphenyl)-8-(methylsulfonyl)-2H-pyrazolo[3,4-c]quinolin-4-amine] was run?
The IC50 was 0.1 to 1 µM.

And the IC50 (LRRK2)?
The IC50 was 0.01 to 0.1 µM.

Which IC50 (SYK kinase) does the source give for `CC(C(=O)O)n1cc(Nc2nc3ccc(S(C)(=O)=O)cc3c3c[nH]nc23)cn1` (stereo not shown) [Example 334, 2-(4-((8-(methylsulfonyl)-2H-pyrazolo[3,4-c]quinolin-4-yl)amino)-1H-pyrazol-1-yl)propanoic acid] here?
Its IC50 is 0.01 to 0.1 µM.

And the IC50 (LRRK2)?
The IC50 was 0.01 to 0.1 µM.

For `COc1cccc2nc(Nc3cnn(CC(=O)N(C)C)c3)c3[nH]ncc3c12` [Example 339, 2-(4-((9-methoxy-3H-pyrazolo[3,4-c]quinolin-4-yl)amino)-1H-pyrazol-1-yl)-N,N-dimethylacetamide], which IC50 (SYK kinase) is on record?
Its IC50 is 0.1 to 1 µM.

What about the IC50 (LRRK2) of the same compound?
Its IC50 is 0.01 to 0.1 µM.

For `COCC(COC)n1cc(Nc2nc3cccc(OC)c3c3cn[nH]c23)cn1` [Example 340, N-(1-(1,3-dimethoxypropan-2-yl)-1H-pyrazol-4-yl)-9-methoxy-3H-pyrazolo[3,4-c]quinolin-4-amine], which IC50 (SYK kinase) is on record?
Its IC50 is 0.1 to 1 µM.

What about the IC50 (LRRK2) of the same compound?
Its IC50 is less than 0.01 µM.

How did the IC50 (SYK kinase) turn out when `CS(=O)(=O)c1ccc2nc(Nc3ccc4c(c3)NC(=O)CS4)c3n[nH]cc3c2c1` [Example 344, 6-((8-(methylsulfonyl)-2H-pyrazolo[3,4-c]quinolin-4-yl)amino)-2H-benzo[b][1,4]thiazin-3(4H)-one] was run?
Its IC50 is less than 0.01 µM.

And the IC50 (LRRK2)?
Its IC50 is 0.01 to 0.1 µM.

Which IC50 (SYK kinase) does the source give for `Brc1ccc2c(c1)nc(Nc1cnn(C3CCOCC3)c1)c1n[nH]cc12` [Example 348, 7-bromo-N-(1-(tetrahydro-2H-pyran-4-yl)-1H-pyrazol-4-yl)-2H-pyrazolo[3,4-c]quinolin-4-amine] here?
Its IC50 is 0.01 to 0.1 µM.

And the IC50 (LRRK2)?
Its IC50 is less than 0.01 µM.

Which IC50 (SYK kinase) does the source give for `CS(=O)(=O)c1ccc2nc(Nc3ccc(O)cc3)c3n[nH]cc3c2c1` [Example 349, 4-((8-(methylsulfonyl)-2H-pyrazolo[3,4-c]quinolin-4-yl)amino)phenol] here?
The IC50 was less than 0.01 µM.

What about the IC50 (LRRK2) of the same compound?
The IC50 was 0.01 to 0.1 µM.

For `CC(=O)Nc1cc(Nc2nc3ccc(S(C)(=O)=O)cc3c3c[nH]nc23)ccc1N1CCN(C(C)=O)CC1` [Example 352, N-(2-(4-acetylpiperazin-1-yl)-5-((8-(methylsulfonyl)-2H-pyrazolo[3,4-c]quinolin-4-yl)amino)phenyl)acetamide], which IC50 (SYK kinase) is on record?
The IC50 was 0.01 to 0.1 µM.

What about the IC50 (LRRK2) of the same compound?
Its IC50 is 0.01 to 0.1 µM.

Which IC50 (SYK kinase) does the source give for `CO[C@H]1CCCC[C@H]1n1cc(Nc2nc3ccc(S(C)(=O)=O)cc3c3c[nH]nc23)cn1` [Example 353, N-(1-((1R,2S)-2-methoxycyclohexyl)-1H-pyrazol-4-yl)-8-(methylsulfonyl)-2H-pyrazolo[3,4-c]quinolin-4-amine] here?
Its IC50 is 0.1 to 1 µM.

And the IC50 (LRRK2)?
The IC50 was less than 0.01 µM.

— patent publication US10752624B2, “Kinase inhibitors” (Origenis GmbH, priority 2012, dated 2020)
